Usually IC50 stands for the concentration that inhibits the measured activity by half.

Read-outs that look alike come from different tables or passages of the source.

Here are results for 17 compounds from patent publication US11407736B2 (priority 2019, dated 2022).

For one assay, the target named is RIPK1 (Homo sapiens (Human), UniProt Q13546). The assay is described as follows: RIPK1 ADP-Glo biochemical kinase assay. The procedure:
The final reaction volume was 5.0ul.
Adding 5 μl of ADP-Glo™ terminated the reaction.
A general note: ADP-Glo turns the ADP formed in a reaction into a luminescent signal.

Another assay has as its system U937 cells. Briefly: U937 cell necroptosis assay (TNFa + zVAD, CellTiter-Glo). It is filed as cell-based, human. The conditions noted are these: Homo sapiens. Here is the method: (§1) In this example, U937 and L929 cells were exposed to compounds of the present disclosure and a cell necroptosis assay was conducted to evaluate the compounds' activity against human RIP1 and murine RIP1.
(§2) U937 and L929 cells were obtained from the American Type Culture Collection (Manassa, Va., USA). Both cells were maintained in logarithmic growth phase in complete RPMI 1640 media (Sigma, ST Louis, Mo., USA) supplemented with 10% fetal bovine serum (Sigma, ST Louis, Mo., USA) at 37° C. with 5% CO2. For necroptosis assay, L929 cells were plated for 18 h in 100 μL/well medium at 10K cells/well in Costar 96-well black clear-bottom plates (Fisher Scientific, Hampton, N.H., USA); U937 cells were plated on the day of the assay in 50 4/well medium containing 60 uM zVAD-fink (Lonza, Basel, Switzerland) at 50K cells/well. Medium from L929 cells were removed from the 96-well plates and replaced with 50 μL/well new medium containing 40 uM zVAD-fink. Each compound of the present disclosure evaluated in this example was serially diluted in DMSO from 2.5 mM in 4-fold dilutions, and then diluted 1:125 in complete medium. 50 μL/well 2× of the compound was then added to the cells in the plates. The cells were pre-incubated with the compound for 1 hour at 37° C. with 5% CO2 and before addition of 10 μL/well 1 1×TNFa (Peprotech, Rocky Hill, N.J., USA) to give a final concentration of 2 ng/mL for TNFa. The relative amount of necroptosis cells was determined by luminescent using a Wallac Victor2 Luminometer (PerkinElmer, Waltham, Mass., USA) and a CellTiter-Glo® Luminescent Cell Viability Reagent Assay (Promega, Madison, Wis., USA) added per manufacturer instructions after 18 hours of TNFa stimulation at 37° C. with 5% CO2. This example establishes that embodiments of the compounds described herein have unexpectedly potent activity against human RIP1 and murine RIP1, which allows their assessment in in vivo mouse models of disease.
A general note: In ATP-based viability assays light output follows the ATP content of the culture.

A further assay relates to L929 cells. Briefly: L929 cell necroptosis assay (TNFa + zVAD, CellTiter-Glo). Format: cell-based, murine. The conditions noted are these: Mus musculus, TNFa + zVAD, read-out: L929-CTG-recovery, L929, TNFa + zVAD (IC50). The procedure:
as §1
as §2, with “The cells were pre-incubated with the compound for 1 hour at 37° C. with 5% CO2 and before addition of 10 μL/well 1 1×TNFa (Peprotech, Rocky Hill, N.J., USA) to give a final concentration of 2 ng/mL for TNFa.” left out, “CO2.” for “CO2. This example establishes that embodiments of the compounds described herein have unexpectedly potent activity against human RIP1 and murine RIP1, which allows their assessment in in vivo mouse models of disease.”

Where [1] appears, read: read-out: RIPK1 ADP-Glo Kinase (IC50).
The mark [2] stands for this setting: U-937, U937 cells, TNFa + zVAD, read-out: U937 Zvad TNF CTG Recovery, U937, TNFa + zVAD (IC50).
[3] abbreviates: U-937, read-out: U937 Zvad TNF CTG Recovery, U937, TNFa + zVAD (IC50), U937 cells, TNFa + zVAD.

Chain of RIPK1 (Q13546 whole entry, species assumed): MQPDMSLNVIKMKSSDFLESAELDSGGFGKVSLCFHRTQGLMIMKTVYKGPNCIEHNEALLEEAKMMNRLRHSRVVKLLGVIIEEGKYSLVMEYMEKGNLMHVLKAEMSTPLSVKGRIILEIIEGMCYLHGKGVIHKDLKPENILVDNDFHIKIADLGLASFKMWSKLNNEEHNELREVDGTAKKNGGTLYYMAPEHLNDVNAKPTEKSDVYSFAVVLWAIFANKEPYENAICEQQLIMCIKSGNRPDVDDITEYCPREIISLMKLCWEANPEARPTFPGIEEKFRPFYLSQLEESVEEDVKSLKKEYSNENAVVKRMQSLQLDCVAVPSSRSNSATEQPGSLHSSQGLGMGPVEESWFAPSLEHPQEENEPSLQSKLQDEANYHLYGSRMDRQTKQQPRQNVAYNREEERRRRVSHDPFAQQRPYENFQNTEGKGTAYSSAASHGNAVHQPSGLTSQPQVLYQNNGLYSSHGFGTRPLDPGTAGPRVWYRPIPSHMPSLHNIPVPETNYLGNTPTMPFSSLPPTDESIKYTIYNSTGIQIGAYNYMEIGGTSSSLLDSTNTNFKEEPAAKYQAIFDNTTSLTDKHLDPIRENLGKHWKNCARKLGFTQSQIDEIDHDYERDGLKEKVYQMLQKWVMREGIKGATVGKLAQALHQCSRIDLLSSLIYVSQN

Take `CN1C(=O)[C@@H](NC(=O)c2n[nH]c(Cc3ccccc3)n2)COc2ccc(C#CC3(O)CCC3)cc21` [Compound I-51, (S)-5-benzyl-N-(7-((1-hydroxycyclobutyl)ethynyl)-5-methyl-4-oxo-2,3,4,5-tetrahydrobenzo[b][1,4]oxazepin-3-yl)-1H-1,2,4-triazole-3-carboxamide]: the IC50 at RIPK1 (setting [1]) was found to be 31.7 nM.
As to `COc1cccc(-c2ccnc(C(=O)N[C@H]3COc4ccc(C#CC(C)(C)O)cc4N(C)C3=O)c2)c1` [II-23, (S)—N-(7-(3-hydroxy-3-methylbut-1-yn-1-yl)-5-methyl-4-oxo-2,3,4,5-tetrahydrobenzo[b][1,4]oxazepin-3-yl)-4-(3-methoxyphenyl)picolinamide], the values for the IC50 in the assay on U937 cells (setting [2]) and at RIPK1 (setting [1]) were 545 nM and 1280 nM, respectively.
For `COc1ccnc(C(=O)N[C@H]2COc3ccc(C#CC(C)(C)O)cc3N(C)C2=O)c1` [Compound I-163, (S)—N-(7-(3-hydroxy-3-methylbut-1-yn-1-yl)-5-methyl-4-oxo-2,3,4,5-tetrahydrobenzo[b][1,4]oxazepin-3-yl)-4-methoxypicolinamide], the values for the IC50 with U937 cells (setting [3]) and on RIPK1 (setting [1]) were 3320 nM and 509 nM, respectively.
As for `CN1C(=O)[C@@H](NC(=O)c2cc(Oc3ccccc3)ccn2)COc2ccc(C#CC(=O)O)cc21` [Compound I-161, (S)-3-(5-methyl-4-oxo-3-(4-phenoxypicolinamido)-2,3,4,5-tetrahydrobenzo[b][1,4]oxazepin-7-yl)propiolic acid], the IC50 in the assay on U937 cells (setting [2]) was 45.5 nM; on RIPK1 (setting [1]), 36.2 nM.
For `CN1C(=O)[C@@H](NC(=O)c2n[nH]c(Cc3ccccc3)n2)COc2ccc(CCC(=O)Nc3ccc4[nH]ncc4c3)cc21` [Compound I-2, (S)—N-(7-(3-((1H-indazol-5-yl)amino)-3-oxopropyl)-5-methyl-4-oxo-2,3,4,5-tetrahydrobenzo[b][1,4]oxazepin-3-yl)-5-benzyl-1H-1,2,4-triazole-3-carboxamide] the same measures were 31.9 nM and 15.7 nM.
In the case of `COc1ccnc(C(=O)N[C@H]2COc3ccc(C#CC4(O)COC4)cc3N(C)C2=O)c1` [Compound I-162, (S)—N-(7-((3-hydroxyoxetan-3-yl)ethynyl)-5-methyl-4-oxo-2,3,4,5-tetrahydrobenzo[b][1,4]oxazepin-3-yl)-4-methoxypicolinamide], the figures for the IC50 in the assay on U937 cells (setting [2]) and on RIPK1 (setting [1]) were 1660 nM and 54.4 nM, respectively.
On the same counts, the results for `CN1C(=O)[C@@H](NC(=O)c2n[nH]c(Cc3ccccc3)n2)COc2ccc(CCC(=O)NC3CC3)cc21` [Compound I-13, (S)-5-benzyl-N-(7-(3-(cyclopropylamino)-3-oxopropyl)-5-methyl-4-oxo-2,3,4,5-tetrahydrobenzo[b][1,4]oxazepin-3-yl)-1H-1,2,4-triazole-3-carboxamide] are 13.8 nM and 53.9 nM.
For `CN1C(=O)[C@@H](NC(=O)c2cc(Oc3ccc(F)cc3)ccn2)COc2ccc(C#CC3(O)CCNCC3)cc21` [Compound I-133, (S)-4-(4-fluorophenoxy)-N-(7-((4-hydroxypiperidin-4-yl)ethynyl)-5-methyl-4-oxo-2,3,4,5-tetrahydrobenzo[b][1,4]oxazepin-3-yl)picolinamide] the same measures were 492 nM and 173 nM.
On the same counts, the results for `CN1C(=O)[C@@H](NC(=O)c2n[nH]c(Cc3ccccc3)n2)COc2ccc(CCC(=O)O)cc21` [Compound I-9, (S)-3-(3-(5-benzyl-1H-1,2,4-triazole-3-carboxamido)-5-methyl-4-oxo-2,3,4,5-tetrahydrobenzo[b][1,4]oxazepin-7-yl)propanoic acid] are 362 nM and 189 nM.
Consider `CN1C(=O)[C@@H](NC(=O)c2cc(Oc3ccccc3)ccn2)COc2ccc(C#CC3(O)CS(=O)(=O)C3)cc21` [Compound I-209, (S)—N-(7-((3-hydroxy-1,1-dioxidothietan-3-yl)ethynyl)-5-methyl-4-oxo-2,3,4,5-tetrahydrobenzo[b][1,4]oxazepin-3-yl)-4-phenoxypicolinamide], for which the IC50 with U937 cells (setting [3]) turned out to be 59.5 nM; at RIPK1 (setting [1]), 106 nM.
As to `CN1C(=O)[C@@H](NC(=O)c2cc(Oc3ccccc3)ccn2)COc2ccc(CN3CC4(CCOCC4)C3)cc21` [Compound I-150, (S)—N-(7-((7-oxa-2-azaspiro[3.5]nonan-2-yl)methyl)-5-methyl-4-oxo-2,3,4,5-tetrahydrobenzo[b][1,4]oxazepin-3-yl)-4-phenoxypicolinamide], the IC50 with U937 cells (setting [2]) stood at 83.1 nM; against RIPK1, 44.7 nM.
On to `CN1C(=O)[C@@H](NC(=O)c2n[nH]c(Cc3ccccc3)n2)COc2ccc(CCC(N)=O)cc21` [Compound I-31, (S)—N-(7-(3-amino-3-oxopropyl)-5-methyl-4-oxo-2,3,4,5-tetrahydrobenzo[b][1,4]oxazepin-3-yl)-5-benzyl-1H-1,2,4-triazole-3-carboxamide], for which the figures for the IC50 in the assay on U937 cells (setting [2]) and on RIPK1 (setting [1]) were 33.7 nM and 33.4 nM, respectively.
On the same counts, the results for `COc1cc2ncnc(NC(=O)CCc3ccc4c(c3)N(C)C(=O)[C@@H](NC(=O)c3n[nH]c(Cc5ccccc5)n3)CO4)c2cc1OC` [Compound I-4, (S)-5-benzyl-N-(7-(3-((6,7-dimethoxyquinazolin-4-yl)amino)-3-oxopropyl)-5-methyl-4-oxo-2,3,4,5-tetrahydrobenzo[b][1,4]oxazepin-3-yl)-1H-1,2,4-triazole-3-carboxamide] are 29.3 nM and 56.8 nM.
On the same counts, the results for `CN1C(=O)[C@@H](NC(=O)c2ccc(Oc3ccccc3)cn2)COc2ccc(C#CC(C)(C)O)cc21` [Compound I-121, (S)—N-(7-(3-hydroxy-3-methylbut-1-yn-1-yl)-5-methyl-4-oxo-2,3,4,5-tetrahydrobenzo[b][1,4]oxazepin-3-yl)-5-phenoxypicolinamide] are 30300 nM and 12400 nM.
Take `CN1C(=O)[C@@H](NC(=O)c2n[nH]c(Cc3ccccc3)n2)COc2ccc(/C=C(\Cl)C(C)(C)O)cc21` [Compound I-94, (S,Z)-5-benzyl-N-(7-(2-chloro-3-hydroxy-3-methylbut-1-en-1-yl)-5-methyl-4-oxo-2,3,4,5-tetrahydrobenzo[b][1,4]oxazepin-3-yl)-1H-1,2,4-triazole-3-carboxamide]: the IC50 was 4.6 nM with L929 cells (L929 cells) and 22 nM in the assay on U937 cells (setting [2]).
For the compound `CC(C)[C@H](N)C(=O)OCC(C)(C)C#Cc1ccc2c(c1)N(C)C(=O)[C@@H](NC(=O)c1cc(Oc3ccc(F)cc3)ccn1)CO2` [Compound I-172, 4-((S)-3-(4-(4-fluorophenoxy)picolinamido)-5-methyl-4-oxo-2,3,4,5-tetrahydrobenzo[b][1,4]oxazepin-7-yl)-2,2-dimethylbut-3-yn-1-yl L-valinate], the IC50 in the assay on L929 cells (L929, L929 cells) came to 850 nM; with U937 cells (setting [2]), 22.1 nM.
For `CC(=O)N1CC(O)(C#Cc2ccc3c(c2)N(C)C(=O)[C@@H](NC(=O)c2cc(Oc4ccccc4)ccn2)CO3)C1` [Compound I-197, (S)—N-(7-((1-acetyl-3-hydroxyazetidin-3-yl)ethynyl)-5-methyl-4-oxo-2,3,4,5-tetrahydrobenzo[b][1,4]oxazepin-3-yl)-4-phenoxypicolinamide] the same measures were 70.6 nM and 0.7 nM.
